From patent US6680342B2, “Methods and compositions for inhibiting the proliferation of prostate cancer cells” (priority 2001, dated 2004)

What was measured:
[1] = system: hK2; assay: hK2 protein in spent media, immunometric assay, LNCaP cells; type: cell-based, human; conditions: 5 days, with or without Mib, normalized by MTS
Protocol: (§1) LNCaP cells were seeded at 2×10^4 cells per well in 24 well plates. […] After a 5 day incubation, the spent media were harvested, and the levels of PSA and hK2 quantified by an immunometric assay as described previously (Hsieh et al., 1997, Cancer Res., 57:2651-6). MTS assays were performed (Promega, Madison, Wis.) as per the manufacturer's instructions. The protein levels of PSA and hK2 were normalized by cell density measurements with the MTS assay.

[2] = system: PSA; assay: PSA protein in spent media, immunometric assay, LNCaP cells; type: cell-based, human; conditions: 5 days, with or without Mib, normalized by MTS
Protocol: as §1

[3] = system: ODC; assay: Northern blot of ODC mRNA, LNCaP cells; type: cell-based, human; conditions: in the presence of androgen, 24 hrs
Protocol: (§2) The films were autoradiographed at −70° C. overnight.

[4] = system: NKX3.1; assay: Northern blot of NKX3.1 mRNA, LNCaP cells; type: cell-based, human; conditions: in the presence of androgen, 24 hrs
Protocol: as §2

[5] = system: PSA; assay: PSA protein in spent media, immunometric assay, LAPC-4 cells; type: cell-based, human; conditions: LAPC-4, 5 days, with or without Mib, normalized
[6] = system: Sp1; assay: Western blot of Sp1, LNCaP cells; type: cell-based, human
Protocol: (§3) Both cell lines were propagated in 24-well, 60 or 100 mm culture dishes at the desired density in RPMI 1640 (Mediatech, Herndon, Va.) supplemented with 5% fetal calf serum (FCS) (Biofluids, Rockville, Md.) at 37° C. and 5% CO2 until reaching 50-70% confluence.
(§4) LNCaP or LAPC-4 cells were plated in 10 cm dishes at 9×10^5 cells per dish in RPMI 1640 and 5% FCS. […] Cells were harvested at designated times, and the whole cell lysate was prepared according to manufacturer's instructions (Santa Cruz, Santa Cruz, Calif.). […] Protein levels were measured with a BioRad DC protein assay (BioRad, Hercules, Calif.). Protein samples (20 μg) were loaded into precast 4-12% NuPage gels (Novex, San Diego, Calif.), run with MOPS buffer, and transferred onto a nitrocellulose membrane (BioRad) according to the manufacturer's instructions. A Ponceau S staining was performed for total protein staining and visualized with a digital camera. The membranes were blocked overnight at 4° C. in TBST (20 mM Tris-HCl (pH 8.0), 137 mM NaCl, and 0.1% Tween 20) and 5% dry milk. The membranes were washed 3 times for ten min each with TBST. Primary antibody for the androgen receptor (1:2,000 dilution) (Pharmingen, San Diego, Calif.), Sp1 (1:2,000 dilution) (Santa Cruz) or heat shock protein70 (Hsp70) (1:1,000 diultion) (StressGene Biotechnologies, Victoria, B.C.) was incubated at room temperature for 1 hr. […]

[7] = system: male and female rats; conditions: approximately 40 to 1900 mg/kg/day; cited from earlier work
[8] = system: PSA; assay: Northern blot of PSA mRNA, LNCaP cells; type: cell-based, human; conditions: in the presence of androgen, 24 hrs
Protocol: as §2

[9] = system: hK2; assay: hK2 protein in spent media, immunometric assay, LAPC-4 cells; type: cell-based, human; conditions: LAPC-4, 5 days, with or without Mib, normalized
[10] = system: heat shock protein70 (Hsp70); assay: Western blot of heat shock protein70, LNCaP cells; type: cell-based, human
Protocol: as §3, §4

## O=c1c(O)c(-c2ccc(O)c(O)c2)oc2cc(O)cc(O)c12 [quercetin, Quercetin]
[1]
  hK2 protein levels: inhibits both PSA and hK2 protein levels in a dose-dependent manner
[2]
  PSA protein levels: inhibits both PSA and hK2 protein levels in a dose-dependent manner
[3]
  ODC mRNA levels: greatly reduced
[4]
  NKX3.1 mRNA levels: greatly reduced
[5]
  PSA protein levels: inhibits both PSA and hK2 protein levels in a dose-dependent manner
[6]
  Sp1 protein level: not affected
[7]
  effects on survival: no treatment related effects on survival
[8]
  PSA mRNA levels: greatly reduced
[9]
  hK2 protein levels: inhibits both PSA and hK2 protein levels in a dose-dependent manner
[10]
  Hsp70 protein level: not affected
